Here are results for six compounds from US20250347696A1, “SELF-ACTIVATING FÖRSTER RESONANCE ENERGY TRANSFER (saFRET) BIOSENSORS AND METHODS FOR MAKING AND USING THEM” (The Regents of the University of California, priority 2021, published 2025).

Experiment [1] deals with pZAP70 (Y493). As to the kind of experiment: pZAP70 (Y493) in P116-ZAP70 R360P cells. The format is cell-based, human. Particulars: inhibitor pre-treatment. The source says:
(§1) To examine the efficacy of staurosporine and AZD7762 in inhibiting pathological T cell activation, we used a disease model where T cell activation is mediated by ZAP70-R360P mutation, a main cause of a severe human autoimmune syndrome^4. We introduced wild type ZAP70 or the R360P-mutant of ZAP70 into ZAP70-deficient P116 T cells (FIG. 6G). ZAP70-R360P led to enhanced T cell auto-activation compared to wild type ZAP70 (FIG. 6H).
(§2) • a, Experimental scheme and timeline for experiments in b-d. The Jurkat T cells were pre-treated with inhibitors for 30 minutes before anti-TCR stimulation by anti-CD3/CD28 antibodies for 5 minutes. • b, Immunostaining images of pLAT (Y191) in Jurkat T cells with different inhibitor pre-treatments. Scale bars, 10 μm. • c, Quantification of pLAT (Y191) intensity of single cells in different groups. […] Error bars, mean±SD. • d, Quantification of pZAP70 (Y493) intensity of single cells in different groups. […] P116 cells with similar ZAP70-WT or ZAP70-R360P expressions were sorted and isolated for further analysis based on YPet intensity. • h, CD69 expression in P116 cells with or without the expression of ZAP70 (WT) and its mutant (R360P). • i, Quantification of pZAP70 (Y493) intensity of single cells in different P116 groups. […] Scale bars, 10 μm. • k, Quantification of pLAT (Y191) intensity of single cells in P116-ZAP70 R360P cells with different inhibitor pre-treatment. […]

In experiment [2] the test system is CD69 expression. As to the kind of experiment: CD69 expression by flow cytometry in T cells after anti-TCR stimulation. Type of experiment: cell-based, human. The settings on record: inhibitor pre-treatment. The method, then:
(§3) We tested the phosphorylation of LAT, a downstream substrate of ZAP70 kinase, and the activation of T cells with the top two identified inhibitors, staurosporine and AZD7762.
(§4) • a, Experimental scheme and timeline for experiments in b-d. The Jurkat T cells were pre-treated with inhibitors for 30 minutes before anti-TCR stimulation by anti-CD3/CD28 antibodies for 5 minutes. • b, Immunostaining images of pLAT (Y191) in Jurkat T cells with different inhibitor pre-treatments. Scale bars, 10 μm. • c, Quantification of pLAT (Y191) intensity of single cells in different groups. (n>150 for each group, One-way ANOVA, ****P<0.0001). Error bars, mean±SD. • d, Quantification of pZAP70 (Y493) intensity of single cells in different groups. (n>200 for each group, One-way ANOVA, ****P<0.0001). […] P116 cells with similar ZAP70-WT or ZAP70-R360P expressions were sorted and isolated for further analysis based on YPet intensity. • h, CD69 expression in P116 cells with or without the expression of ZAP70 (WT) and its mutant (R360P). • i, Quantification of pZAP70 (Y493) intensity of single cells in different P116 groups. […] Scale bars, 10 μm. • k, Quantification of pLAT (Y191) intensity of single cells in P116-ZAP70 R360P cells with different inhibitor pre-treatment. […]
On the technique in general: A flow cytometer gives signals particle by particle.

The next experiment concerns the target T1, ZAP70 kinase (Homo sapiens, UniProt P43403).
T1 sequence (P43403 327-619): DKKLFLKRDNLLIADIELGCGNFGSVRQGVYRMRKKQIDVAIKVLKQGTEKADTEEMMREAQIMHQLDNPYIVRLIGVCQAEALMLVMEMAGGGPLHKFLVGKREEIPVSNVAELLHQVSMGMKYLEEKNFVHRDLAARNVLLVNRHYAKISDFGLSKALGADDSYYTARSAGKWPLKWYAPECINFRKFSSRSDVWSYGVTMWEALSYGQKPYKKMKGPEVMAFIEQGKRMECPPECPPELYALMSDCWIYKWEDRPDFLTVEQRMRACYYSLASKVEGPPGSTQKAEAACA
Particulars: for inhibition of ZAP70 activity (FRET ratio change compared to solvent control): 10 μM, 40 minutes of incubation. The method, then:
(§5) We first screened a 96-member kinase inhibitor library to identify efficient inhibitors of ZAP70 kinase. […] After 40 minutes of incubation with inhibitors, the cells were imaged, and the FRET ratio changes of individual inhibitors compared to the solvent control were calculated to identify promising candidates after this primary endpoint screening (FIG. 5B-D). We further exploited a control biosensor with a kinase-dead domain (saFRETkd) for counter screening to eliminate false-positive hits due to auto-fluorescence or other non-specific effects^48.
• a, Schematics of the high throughput drug screening platform. First, the cells cultured in 96-well glass bottom plate were treated either with DMSO or inhibitors from the kinase inhibitor library. After 40 minutes of incubation, the cells were imaged, and the FRET ratio change compared to the control cell was calculated. […] Scale bars, 10 μm. • c, Summary of screening results. […] Error bars, mean±SD. • e, Counter screening using a mutant biosensor with a kinase-dead domain to subtract the noise engendered from non-specific fluorescence. […] Error bars, mean±SEM.
(§6) Firstly, we transfected HEK293 cells with optimized saFRET biosensor and established a stable cell line. […] HEK293 stable cell line was then cultured in 96 glass bottom wells for approximately 24 hours and then should be ready for high throughput screening (see FIG. 5A, Example 1). We tested this concept by screening an in house kinase inhibitor library (Cayman chemical inc.) and screened a […] kinase inhibitor library to identify efficient inhibitors of ZAP70 kinase. […] After 40 minutes of incubation with inhibitors, the cells were imaged, and the FRET ratio changes of individual inhibitors compared to the solvent control were calculated to identify promising candidates after this primary endpoint screening (see FIG. 5B-G, Example 1). We further exploited a control biosensor with a mutated-kinase dead domain (saFRETkd) for counter screening to eliminate false-positive hits due to auto-fluorescence or other non-specific effects (Simeonov and Davis 2004).

Experiment [3] has as its system pZAP70 (Y493). The experiment is described as follows: pZAP70 (Y493) immunostaining in Jurkat T cells after anti-CD3/CD28 stimulation. Type of experiment: cell-based, human. Particulars: inhibitor pre-treatment 30 minutes, anti-CD3/CD28 5 minutes. The method, then: as §3, §4
The subject of the next experiment is pLAT (Y191). As to the kind of experiment: pLAT (Y191) in P116-ZAP70 R360P cells. Particulars: inhibitor pre-treatment. Type of experiment: cell-based, human.
Source text: as §1, §2

For experiment [4], the system named is CD69 expression. The experiment is described as follows: CD69 expression by flow cytometry in P116-ZAP70-R360P cells. The format is cell-based, human. Particulars: inhibitor pre-treatment.
Source text: as §1, §2

Experiment [5] deals with phosphorylated LAT (Y191). As to the kind of experiment: pLAT (Y191) immunostaining in Jurkat T cells after anti-CD3/CD28 stimulation. The settings on record: inhibitor pre-treatment 30 minutes, anti-CD3/CD28 5 minutes. The format is cell-based, human. The method, then:
as §3, §4

Experiment [6] concerns the target T2, ZAP70 biosensor with kinase-dead domain (saFRETkd) (Homo sapiens, UniProt P43403, K369A).
T2 construct: kinase 327-619 (both KA and KM) was chosen for generating the Zap70 biosensor substrate libraries; expressed in transfected cells; host or cells: HEK cells
T2 sequence (P43403 327-619 K369A): T1 sequence (P43403 327-619) with K43A
As to the kind of experiment: ZAP70 saFRET biosensor with kinase-dead domain (saFRETkd), control / counter screening. The format is cell-based. The settings on record: for TAK-659-induced FRET response of ZAP70 saFRET biosensor with kinase-dead domain: kinase-dead (K369A) domain, HEK cells. The method, then:
as §5, §6
Background: The purpose of a counterscreen is to sort out artefacts and off-target activity.

In experiment [7] the target is T3, ZAP70 kinase domain (327-619) (Homo sapiens, UniProt P43403).
T3 construct: The combination of ZAP70 kinase domain (327-619) and a substrate from LATY191; expressed in transfected cells; host or cells: HEK cells
T3 sequence (P43403 327-619): T1 sequence (P43403 327-619)
As to the kind of experiment: ZAP70 saFRET biosensor live-cell FRET imaging in HEK cells. The settings on record: TAK-659 25 μM. The format is cell-based. The source says:
To extend FRET-seq as a general platform to optimize different kinase FRET biosensors in mammalian cells, we further applied this technology to improve the ZAP70 kinase FRET biosensor. […] Similar to the Fyn saFRET biosensor, the FRET change of ZAP70 saFRET biosensor was dominated by the active kinase domain, as evidenced by the observations that the TAK-659-induced dynamic changes (FIG. 3 b,c) and phosphorylation (Supplementary FIG. 5a, or FIG. 11A) were abolished when the kinase domain was replaced by its kinase-dead version (K369A)^41.
Using the established platform for library screening and sequencing, the ZAP70 biosensor candidates selected via the four-dimensional plot were further ranked by the product of Ev (KAH) and Ev (KDL) (FIG. 3D-E). […] The dynamic range of FRET ratio of the biosensors containing […] (SEQ ID NO:113) or […] (SEQ ID NO:114) increased approximately 50% comparing to the parental one, when transiently expressed in HEK cells (FIG. 3G-H). As such, our FRET-seq platform can serve as a general high-throughput approach to engineer FRET biosensor from libraries and develop sensitive kinase biosensors. […]
To increase the specificity of the selected substrates, library with mutated kinase were included. […] The variants which satisfied all conditions were selected (FIG. 3D, Example 1), and their FRET ratio change upon TAK-659 treatment were measured by fluorescence microscope. […]

Positions count from the first letter of the chain named. Entries after “also recorded” stand apart in the source; their conditions may differ. Read-outs that look alike come from different tables or passages of the source.

Take `NC(=O)Nc1cc(-c2cccc(F)c2)sc1C(=O)N[C@H]1CCCNC1` [AZD7762]: the “phosphorylation of ZAP70” value in the experiment with pZAP70 (Y493) [1] is recorded as “significantly inhibited”. Moreover, the “expression of CD69” value in the experiment with CD69 expression [2] is “suppressed”. For the same compound, at ZAP70 kinase, the “inhibition of ZAP70 activity (FRET ratio change compared to solvent control)” value is recorded as “effectively inhibit”. In the experiment on pZAP70 (Y493) [3], the “phosphorylated ZAP70 (Y493)” value is “Significant reductions”. The “phosphorylation of LAT (Y191)” value with pLAT (Y191) is on record as “significantly inhibited”. In the experiment on CD69 expression [4], the “activation of T cells marked by CD69” value is recorded as “significantly inhibited”. Further, the “phosphorylated LAT (Y191)” value in experiment [5] is given as “Significant reductions”.

Turning to `Cc1[nH]c(/C=C2\C(=O)Nc3ccc(S(=O)(=O)Cc4c(Cl)cccc4Cl)cc32)c(C)c1C(=O)N1CCC[C@@H]1CN1CCCC1` [PHA665752], in [6] (10 μM library inhibitors, kinase-dead biosensor), the “FRET ratio change with saFRETkd in counter screening” value is listed as “nonspecific reduction of FRET ratio”.

`CC(C)(C)n1nc(-c2ccc(Cl)cc2)c2c(N)ncnc21` [PP2]: the “FRET ratio response of ZAP70 saFRET biosensor (active kinase domain) to inhibitor” value in experiment [7] was “not”.

For `CN[C@@H]1C[C@H]2O[C@@](C)([C@@H]1OC)n1c3ccccc3c3c4c(c5c6ccccc6n2c5c31)C(=O)NC4` [Staurosporine], in the experiment with pZAP70 (Y493) [1], the “phosphorylation of ZAP70” value is given as “significantly inhibited”. Also, the “expression of CD69” value in the experiment with CD69 expression [2] was “suppressed”. At ZAP70 kinase, the “inhibition of ZAP70 activity (FRET ratio change compared to solvent control)” value was “effectively inhibit”. Also, the “phosphorylated ZAP70 (Y493)” value in the experiment on pZAP70 (Y493) [3] is reported as “Significant reductions”. Besides, the “phosphorylation of LAT (Y191)” value in the experiment on pLAT (Y191) is reported as “significantly inhibited”. The “activation of T cells marked by CD69” value in the experiment with CD69 expression [4] was “significantly inhibited”. For the same compound, the “phosphorylated LAT (Y191)” value in experiment [5] is “Significant reductions”.

Take `Cn1cc(-c2nc(N[C@@H]3CCCC[C@@H]3N)c(F)c3c2C(=O)NC3)cn1` [TAK-659]: the figures for the “TAK-659-induced FRET response of ZAP70 saFRET biosensor with kinase-dead domain” value in experiment [6] and in [6] (listed as TAK659) were “abolished; also recorded: did not show any response” and “no response”, respectively. Also, on ZAP70 kinase (listed as TAK659), the “inhibition of ZAP70 activity (FRET ratio change compared to solvent control)” value was “could not reduce the FRET ratio significantly”. The “average FRET ratio reduction” value on ZAP70 kinase (25 μM, stable HEK cell line, ZAP70 saFRET biosensor) is reported as “approximately 25%”. In addition, in experiment [7], the “FRET ratio response of ZAP70 saFRET biosensor (active kinase domain) to inhibitor” value is “specifically responded; also recorded: significant FRET ratio change”.

In the case of `COc1ccc2cc(-c3nc(-c4ccc([S+](C)[O-])cc4)[nH]c3-c3ccncc3)ccc2c1` (stereo not shown) [Tie2 kinase inhibitor], the “inhibition of ZAP70 activity (FRET ratio change compared to solvent control)” value on ZAP70 kinase is listed as “effectively inhibit”.
